# Patent US5380729A, “12-hetero substituted 6,11-ethano-6,11-dihydrobenzo (b) quinolizinium salts and compositions and method of use thereof” (Sterling Winthrop Inc., priority 1993, dated 1995)
# Key:
# PCP recognition sites [1] = experiment: [3H]TCP Radioreceptor Assay (external screen); format: binding, rat (whole rat forebrain membranes); details: @ 10 μM; rat forebrain membranes; 25° C., 60 minutes
# Description: Representative compounds of the invention were also tested in an external [^3 H]TCP radioreceptor assay using the following protocol:
# [^3 H]TCP Radioreceptor Assay (external screen)
# A procedure similar to that described above for the [^3 H]TCP radioreceptor assay (internal screen) was utilized except that the whole rat forebrain membranes were incubated at 25° C. for 60 minutes rather than at room temperature for 25 minutes, before termination of the reaction. The results are reported as a percent (%) inhibition of binding at 10 μM.
# PCP recognition sites [2] = experiment: [3H]TCP Radioreceptor Assay (internal screen); format: binding, rat (male Sprague-Dawley; details: rat whole brain membranes, room temperature, 25 min; for Ki: ~1 nM [3H]TCP
# Description: [^3 H]TCP Radioreceptor Assay (internal screen)
# [^3 H]TCP binding to PCP recognition sites was performed as described by Vignon et al. Brain Research 1983, 280, 194°197. Male Sprague-Dawley rats were sacrificed by decapitation, and whole brains were homogenized in 10 volumes (wt/vol) of cold Tris-HCl buffer (50 mM, pH 7.7) using a Brinkmann Polytron (setting 6, 30 sec). The homogenate was centrifuged at 40,000×g for 10 min at 4° C. The supernatant was decanted, and the homogenization and centrifugation steps were repeated twice as described above. Following this, the pellet was resuspended in Tris-HCl (5 mM, pH 7.7) at a tissue concentration of 0.5°0.75 g/ml, and one ml aliquots were frozen at -70° C. until use. The binding characteristics for PCP recognition sites were not altered by the freezing of membrane suspensions.
# On the day of the assay, membrane aliquots were thawed, resuspended in fresh 5 mM Tris-HCl buffer at a tissue concentration of 1 mg/ml, and stored on ice until use. Each assay tube contained 100 μl of [^3 H]TCP at a final concentration of approximately 1 nM, 100 μl of various concentrations of the compounds of interest, 500 μl of the tissue suspension and 300 of buffer to a final assay volume of 1 ml and a final protein concentration of 0.5 mg/tube. Non-specific binding was defined by addition of a final concentration of 100 μM PCP to blank tubes. All tubes were incubated at room temperature for 25 min before termination of the reaction by rapid filtration over Whatman GF/B glass fiber filters that had been presoaked in a solution of 0.5% polyethylenimine for at least 1 hr prior to use. Filters were washed with three 4 ml volumes of cold Tris buffer. Following addition of scintillation cocktail, the amount of bound radioactivity was determined by liquid scintillation spectrometry using a Beckman LS 5000TA liquid scintillation counter with an efficiency for tritium of approximately 55% . Inhibition constants (Ki values) were calculated using the EBDA/LIGAND program (McPherson, J. Pharmacol. Meth. 1985, 14, 213-228), purchased from Elsevier/Biosoft, Inc. Results are reported as Ki values or as a percent (%) inhibition of binding at 10
# [3] = tested on: NMDA-induced neurotoxicity in cultured cortical neurons; experiment: Antagonism of NMDA-induced neurotoxicity in cultured neurons (LDH release); format: cell-based, mouse (Swiss-Webster); details: 500 μM NMDA, 30 minutes, LDH activity at 24 hours, mouse cortical neurons
# Description: Antagonism of NMDA-induced Neurotoxicityin Cultured Neurons
# Preparation of Cultured Cortical Neurons
# Pregnant, Swiss-Webster mice were obtained from Taconic Farms (Germantown, New York) and sacrificed 16 days post conception. Fetuses were removed and placed in a sterile dish containing Hank's balanced salt solution (HBSS), pH 7.4. Brain cortices were dissected, meninges were removed, the tissue was minced and placed into a solution of HBSS containing 0.25% (w/v) trypsin at 37° C. for 15 minutes. Tissue was then triturated with a sterile pasteur pipet, diluted with minimal essential media (Gibco 330-1430), pH 7.4, supplemented with 10% horse serum, 10% fetal calf serum, 2 mM 1-glutamine, 21 mM d-glucose, 2.2 g/L sodium bicarbonate, 1000 u/ml penicillin, and 1,000 μg/ml streptomycin. Cells were plated onto Falcon primaria 96 well plates at a final density of 50,000 cells/well and incubated at 37° C. in the presence of 5% (v/v) carbon dioxide. After 5 days, plating media was replaced with maintenance media containing minimal essential media (Gibco 330- 1430), pH 7.4, supplemented with 10% horse serum, 10% 1-glutamine, 21 mM d-glucose, 2.2 g/l sodium bicarbonate,1,000 U/ml penicillin, 1,000 μg/ml streptomycin, and 10 μM cytosine arabinoside. On days 7 and 10, media was replaced with maintenance media as above lacking the cytosine arabinoside. Experiments were conducted on day 13.
# Neuroprotection Assessment
# Day 13 cultured cortical neurons were washed twice with minimal essential media, pH 7.4 and then exposed for 30 minutes to 500 μM N-methyl-D-aspartic acid (NMDA) with or without varying concentrations of test agents. Dizocilpine (MK-801) at a final concentration of 10 μM MK-801 was routinely included as a positive control. MK-801 and test agents were prepared in minimal essential media supplemented with 21 mM d-glucose and 2.2 g/L sodium bicarbonate (MEM). After 30 minutes, media was replaced with MEM alone. Exposure of neurons to test agents was limited to the NMDA treatment period. Twenty-four hours after removal of NMDA, an aliquot of media from each well was removed for assessment of cell injury by determining lactate dehydrogenase (LDH) activity by. the method of Wroblewski and LaDue Proc. Soc. Exp. Biol. Med. 1955, 90, 210-213. The results are expressed as an IC50 (in nM) value (concentration causing 50% inhibition) for the antagonism of NMDA--inducedneurotoxicity.
# [4] = Comparison of separate enantiomers with the racemate (test not specified); details: (-)-enantiomer vs (+)-enantiomer or racemate
SMILES,"Percent inhibition, [3H]TCP (external screen) (PCP recognition sites [1])",Ki (PCP recognition sites [2]),other results
"CCOC1(OCC)CC2c3cc(C)c(C)cc3C1c1cccc[n+]12.[O-][Cl+3]([O-])([O-])[O-] (centres unmarked) [63(i), 8,9-Dimethyl-12,12-diethoxy-6,11-ethano-6,11-dihydrobenzo[b]quinolizinium perchlorate]",35%,2260 nM,
"CCOC1(OCC)C2c3ccccc3C(C1Cl)[n+]1ccccc12 (single isomer, unassigned) [Example 41, 6,11-ethano-12,12-diethoxy-13-chloro-6,11-dihydrobenzo[b]quinolizinium bromide]",,67 nM,IC50 ([3]; Cortical neurone): 445 nM
"CCOC1(OCC)CC2c3ccc(C)cc3C1c1cccc[n+]12.[O-][Cl+3]([O-])([O-])[O-] (centres unmarked) [63(g), 9-Methyl-12,12-diethoxy-6,11-ethano-6,11-dihydrobenzo[b]quinolizinium perchlorate]",0%,,"Percent inhibition, [3H]TCP (internal screen) (PCP recognition sites [2]; @ 10 μM): 68%"
"CCOC1(OCC)CC2c3ccccc3C1(C)c1cccc[n+]12.[O-][Cl+3]([O-])([O-])[O-] (centres unmarked) [63(c), 11-Methyl-12,12-diethoxy-6,11-ethano-6,11-dihydrobenzo[b]quinolizinium perchlorate]",0%,9300 nM,
"CCOC1(OCC)C2c3ccccc3C(C1C)[n+]1ccccc12.[O-][Cl+3]([O-])([O-])[O-] (centres unmarked) [Example 38, 6,11-ethano-12,12-diethoxy-13-methyl-6,11-dihydrobenzo[b]quinolizinium perchlorate]",,33.8 nM,IC50 [3]: 1160 nM
"CCOC1(OCC)C2c3ccccc3C([n+]3ccccc32)C1(C)C (single isomer, unassigned; (-)) [Example 12(c), (-)-12,12-diethoxy-13,13-dimethyl-6,11-ethano-6,11-dihydrobenzo[b]quinolizinium chloride. 1/2-7/4 hydrate]",,,IC50 [3]: 26 nM; Ki (PCP recognition sites [2]; hydrate): 4.03 nM; potency compared to the (+)-enantiomer (Example 13(c)) or the racemate (Example 2) [4]: more potent; side effects compared to the (+)-enantiomer (Example 13(c)) or the racemate (Example 2) [4]: fewer side effects
"CCOC1(OCC)CC2c3c(C)cccc3C1c1cccc[n+]12.[O-][Cl+3]([O-])([O-])[O-] (centres unmarked) [63(f), 7-Methyl-12,12-diethoxy-6,11-ethano-6,11-dihydrobenzo[b]quinolizinium perchlorate]",34%,7430 nM,
"CCOC1(OCC)C2c3c(OC)cccc3C([n+]3ccccc32)C1(C)C (centres unmarked) [19(d), 10-methoxy-12,12-diethoxy-13,13-dimethyl-6,11-ethano-6,11-dihydrobenzo[b]quinolizinium chloride·3/2 hydrate]",,,IC50 ([3]; Cortical neurone): 21.8 nM; Ki (PCP recognition sites [2]; hydrate): 10.4 nM
"CCOC1(OCC)C2c3c(C)ccc(C)c3C(C1C)[n+]1ccccc12.[O-][Cl+3]([O-])([O-])[O-] (centres unmarked) [63(e), 7,10-Dimethyl-12,12-diethoxy-13-methyl-6,11-ethano-6,11-dihydrobenzo[b]quinolizinium perchlorate]",65%,255 nM,
"CCOC1(OCC)C2c3cc(OC)ccc3C([n+]3ccccc32)C1(C)C (single isomer, unassigned) [20(a), 9-methoxy-12,12-diethoxy-13,13-dimethyl-6,11-ethano-6,11-dihydrobenzo[b]quinolizinium hexafluorophosphate]",,3.52 nM,IC50 [3]: 157 nM
"CCOC1(OCC)C2c3ccccc3C([n+]3ccccc32)C1(C)C (centres unmarked) [Example 2, 12,12-diethoxy-13,13-dimethyl-6,11-ethano-6,11-dihydrobenzo[b]quinolizinium chloride-1/4 H2 O]",,5.3 nM,IC50 ([3]; Cortical neurone): 30 to 50 nM
"CCOC1(OCC)C2c3ccccc3C([n+]3ccccc32)C1(C)C.[O-][Cl+3]([O-])([O-])[O-] (centres unmarked) [1(a), 12,12-diethoxy-13,13-dimethyl-6,11-ethano-6,11-dihydrobenzo[b]quinolizinium perchlorate]",,8.4 nM,IC50 ([3]; Cortical neurone): 17 nM
"CCOC1(OCC)CC2c3c(C)ccc(C)c3C1c1cccc[n+]12.[O-][Cl+3]([O-])([O-])[O-] (centres unmarked) [63(h), 7,10-Dimethyl-12,12-diethoxy-6,11-ethano-6,11-dihydrobenzo[b]quinolizinium perchlorate]",52%,,
"CCOC1(OCC)C2c3c(Br)cccc3C([n+]3ccccc32)C1(C)C.[O-][Cl+3]([O-])([O-])[O-] (centres unmarked) [Example 29, 6,11-ethano-12,12-diethoxy-13,13-dimethyl-10-bromo-6,11-dihydrobenzo[b]quinolizinium perchlorate]",,132 nM,IC50 [3]: 1040 nM
